We go through two molecules from US12343319B2, “Compositions and methods for treatment of diseases and disorders” (Atai Therapeutics Inc., priority 2023, dated 2025).

The target of test [1] is T1, 5-HT1A (Homo sapiens, UniProt P08908).
T1 construct: expressed in transfected cells
T1 sequence (P08908 1-422): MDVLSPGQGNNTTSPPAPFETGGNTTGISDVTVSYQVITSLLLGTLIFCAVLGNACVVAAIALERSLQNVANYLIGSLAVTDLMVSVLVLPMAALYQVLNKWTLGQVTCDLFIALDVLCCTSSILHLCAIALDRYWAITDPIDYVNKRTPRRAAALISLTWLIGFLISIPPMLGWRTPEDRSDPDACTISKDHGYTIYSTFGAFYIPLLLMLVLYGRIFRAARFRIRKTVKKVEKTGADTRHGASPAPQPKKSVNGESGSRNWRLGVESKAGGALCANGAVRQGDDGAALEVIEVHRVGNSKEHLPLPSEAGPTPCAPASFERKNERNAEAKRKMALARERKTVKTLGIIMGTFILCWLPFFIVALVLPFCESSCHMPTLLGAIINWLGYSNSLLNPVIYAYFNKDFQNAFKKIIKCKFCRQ
Put plainly: cAMP, 5-HT1A. In kind it is cell-based. Here is the method:
(§1) In vitro pharmacology studies were performed to evaluate the effects of compound 2-1 on functional activity of several 5-HT receptors using recombinant target overexpression cell culture systems. The effect of compound 2-1 on G protein-dependent signaling was investigated at 5-HT2A, 5-HT2B, and 5-HT2C receptors with calcium mobilization and IPOne assays; and at 5-HT1A, 5-HT1B, 5-HT1F, 5-HT5A, and 5-HT7D receptors with a cAMP assay. G protein-independent signaling was investigated at the 5-HT2A receptor with a β-Arrestin assay.
(§2) In vitro pharmacology studies were performed to evaluate the effects of compound 2-2 on functional activity at several 5-HT receptors using recombinant target overexpression cell culture systems. The effect of compound 2-2 on G protein-dependent signaling was investigated at 5-HT2A, 5-HT2B, and 5-HT2C receptors with calcium mobilization and IPOne assays; and at 5-HT1A, 5-HT1B, 5-HT1F, 5-HT5A, and 5-HT7D receptors with a cAMP assay. G protein-independent signaling was investigated at the 5-HT2A receptor with a β-arrestin assay. […] In Table 4, 5-HT receptor selectivity was calculated using ΔΔlog(Emax/EC50). Assay reference α-Me-5-HT or 5-HT was used for normalization at each receptor (5-HT2A/5-HT2B selectivity=1; 5-HT2A/5-HT2C selectivity=1). ND in Table 4 indicates, not determined, plateau was not reached within the concentration range tested to determine Emax.

Test [2] deals with T2, 5-HT1F (Homo sapiens, UniProt P30939).
T2 construct: expressed in transfected cells
T2 sequence (P30939 1-366): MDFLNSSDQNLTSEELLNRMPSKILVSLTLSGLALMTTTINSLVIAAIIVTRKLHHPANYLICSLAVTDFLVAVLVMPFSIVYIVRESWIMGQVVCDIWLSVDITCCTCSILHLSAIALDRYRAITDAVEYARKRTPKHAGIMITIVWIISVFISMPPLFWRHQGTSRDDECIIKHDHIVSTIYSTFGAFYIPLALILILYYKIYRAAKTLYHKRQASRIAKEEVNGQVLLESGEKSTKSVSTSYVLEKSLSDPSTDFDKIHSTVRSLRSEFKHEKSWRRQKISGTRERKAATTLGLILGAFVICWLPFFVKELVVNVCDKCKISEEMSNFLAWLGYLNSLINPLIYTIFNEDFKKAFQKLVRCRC
Put plainly: cAMP, 5-HT1F. In kind it is cell-based. Here is the method:
as §1, §2

Test [3] concerns the target T3, 5-HT5A (Homo sapiens, UniProt P47898).
T3 construct: expressed in transfected cells
Put plainly: cAMP, 5-HT5A. In kind it is cell-based. As to the method:
as §1, §2

For test [4], the target named is 5-HT2A (Homo sapiens, UniProt P28223). Put plainly: Radioligand binding, 5-HT2A. Further details: expressed in transfected cells. The conditions noted are these: for Max % inhibition: radioligand binding, human 5-HT2A.
Chain of 5-HT2A (P28223 whole entry): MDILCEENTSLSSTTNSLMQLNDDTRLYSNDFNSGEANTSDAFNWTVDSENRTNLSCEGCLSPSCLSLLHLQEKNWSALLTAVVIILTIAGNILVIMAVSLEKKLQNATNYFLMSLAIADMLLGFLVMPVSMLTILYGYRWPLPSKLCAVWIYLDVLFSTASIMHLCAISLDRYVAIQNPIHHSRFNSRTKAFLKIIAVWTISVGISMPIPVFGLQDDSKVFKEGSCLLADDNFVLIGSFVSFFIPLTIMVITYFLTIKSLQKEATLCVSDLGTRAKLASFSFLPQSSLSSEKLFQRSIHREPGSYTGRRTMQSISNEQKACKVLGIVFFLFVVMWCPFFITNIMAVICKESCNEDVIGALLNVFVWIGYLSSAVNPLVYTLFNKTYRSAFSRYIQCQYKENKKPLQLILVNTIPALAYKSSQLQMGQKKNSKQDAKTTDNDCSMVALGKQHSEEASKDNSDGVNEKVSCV
Test [5] has as its target 5-HT2A receptor (Mus musculus, UniProt P35363). Put plainly: Mouse head twitch response (HTR). In kind it is in vivo. Also noted: endogenous in cells; host or cells: adult male C57BL/6J mice, in vivo. The conditions noted are these: for ED50: mouse. As to the method:
The head twitch response (HTR) assay in rodents is commonly used as a behavioral proxy for 5-HT2A receptor activation. For classical serotonergic psychedelics, mouse HTR potency correlates with potency of subjective effects in humans. The ability of compound 2-1 to induce HTR in mice was assessed using a validated and automated detection system. Briefly, adult male C57BL/6J mice surgically prepared with a small neodymium magnet (4.57 mm×4.57 mm×2.03 mm) attached to the cranium were injected intraperitoneally (i.p.) with single doses of compound 2-1 (0.3, 1, 3, 10, 30 mg/kg, based on weight of the free base) or 40% (w/v) 2-HPBCD (hydroxypropyl-beta-cyclodextrin) vehicle (n=5-6 mice per treatment). In a 5-HT2A receptor antagonism study, M100907, a 5-HT receptor antagonist (0.001, 0.01, 0.1 mg/kg, i.p.) was administered 20 minutes prior to compound 2-1. Immediately after compound 2-1 injection, the mouse was placed individually in a glass cylinder surrounded by a magnetometer coil. HTR were recorded for 30 minutes and analyzed using a validated technique based on artificial intelligence. […] In FIG. 1A, FIG. 1B, and FIG. 1C, HTR data were analyzed using a 1-way Analysis of Variance (ANOVA) followed by Dunnett's test **p<0.01, ***p<0.001, ****p<0.0001 vs. vehicle).
The HTR assay in rodents is commonly used as a behavioral proxy for 5-HT2A receptor activation. For classical serotonergic psychedelics, mouse HTR potency correlates with potency of subjective effects in humans. The ability of compound 2-2 to induce HTR in mice was assessed using a validated and automated detection system. Briefly, adult male C57BL/6J mice surgically prepared with a small neodymium magnet (4.57 mm×4.57 mm×2.03 mm) attached to the cranium were injected intraperitoneally (i.p.) with single doses of compound 2-2 (0.3, 1, 3, 10, 30 mg/kg, based on weight of the free base) or 40% (w/v) 2-HPBCD vehicle (n=5-6 mice per treatment). In a 5-HT2A receptor antagonism study, M100907 (0.001, 0.01, 0.1 mg/kg, i.p.) was administered 20 minutes prior to compound 2-2. Immediately after compound 2-2 injection, the mouse was placed individually in a glass cylinder surrounded by a magnetometer coil. HTR were recorded for 30 minutes and analyzed using a validated technique based on artificial intelligence. […] HTR were analyzed using a 1-way Analysis of Variance (ANOVA) followed by Dunnett's test (*p<0.05, **p<0.01, ***p<0.001, ****p<0.0001 vs. vehicle).

The mark [6] stands for this setting: ip, C57BL/6J mice, 30 minutes, read-out: HTR 50% effective dose (ED50).

Read-outs that look alike come from different tables or passages of the source. Where only a bound is given, the exact number is not on record here.

Chain of 5-HT2A receptor (P35363 whole entry): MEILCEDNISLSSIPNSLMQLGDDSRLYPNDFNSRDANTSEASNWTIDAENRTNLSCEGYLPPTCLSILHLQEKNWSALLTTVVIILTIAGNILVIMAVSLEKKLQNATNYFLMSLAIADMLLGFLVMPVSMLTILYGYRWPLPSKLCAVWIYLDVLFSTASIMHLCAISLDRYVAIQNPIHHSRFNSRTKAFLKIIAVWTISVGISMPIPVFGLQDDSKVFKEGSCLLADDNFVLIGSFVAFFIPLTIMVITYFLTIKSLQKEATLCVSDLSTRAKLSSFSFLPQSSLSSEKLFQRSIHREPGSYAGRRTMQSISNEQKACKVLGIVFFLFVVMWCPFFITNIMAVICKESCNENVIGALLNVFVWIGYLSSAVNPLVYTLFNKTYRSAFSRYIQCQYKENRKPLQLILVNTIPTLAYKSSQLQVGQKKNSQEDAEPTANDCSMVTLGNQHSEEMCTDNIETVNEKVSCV
T3 sequence (P47898 whole entry): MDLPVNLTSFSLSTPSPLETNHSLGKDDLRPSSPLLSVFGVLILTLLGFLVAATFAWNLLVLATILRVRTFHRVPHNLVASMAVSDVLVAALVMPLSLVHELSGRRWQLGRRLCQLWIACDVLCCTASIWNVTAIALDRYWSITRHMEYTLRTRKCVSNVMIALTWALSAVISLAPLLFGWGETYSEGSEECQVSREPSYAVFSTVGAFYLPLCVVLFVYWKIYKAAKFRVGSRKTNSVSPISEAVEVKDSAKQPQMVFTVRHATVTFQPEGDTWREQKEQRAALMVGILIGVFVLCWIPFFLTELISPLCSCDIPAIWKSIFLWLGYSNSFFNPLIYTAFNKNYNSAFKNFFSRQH

Usually EC50 stands for the concentration needed to bring the measured effect to its halfway point. Broadly, the Emax is the greatest response seen or fitted, relative to the assay's reference. As usually defined, the IC50 is the concentration that inhibits the measured activity by half. Read a high IC50 as weaker potency. The ED50 is the midpoint of the dose-response relation. With `COc1ccc(OC)c(CCNCc2cc(C)cc(Cl)c2)c1` [Compound 2-1, N-(3-chloro-5-methylbenzyl)-2-(2,5-dimethoxyphenyl)ethan-1-amine], the values for the EC50 in test [1], in test [2] and in test [3] were > 20 µM, > 9 µM and 25.2 nM, respectively. The Emax in test [3] (cAMP, human 5-HT5A, read-out: Emax (%5-HT)) is 44.4%. For the same molecule, in test [3] (human 5-HT5A receptor), the “agonist activity (in words)” value is “partial agonist activity”. This molecule also gave an IC50 in test [4] of 42.4 nM. In test [4], this molecule returned a Max % inhibition of 96.93%. The “shape of HTR dose-response curve” value in test [5] (0.3-30 mg/kg i.p.) is recorded as “inverted “U”-shaped”. Moreover, the “HTR compared to vehicle” value was “significantly increased” in test [5] (3 and 10 mg/kg, i.p.); “increased HTR significantly” in test [5] (oral, 30 mg/kg). Besides, the “HTR after M100907 pretreatment” value in test [5] (M100907 0.001, 0.01, 0.1 mg/kg i.p. 20 minutes prior, compound i.p.) is reported as “significant dose-dependent attenuation”. The ED50 in test [5] (setting [6]) was determined as 1.7 mg/kg; in test [5] (po, mice, read-out: HTR ED50) it was 15.7 mg/kg.
`COc1ccc(OC)c(CCNCc2cc(C)cc(F)c2)c1` [Compound 2-2, 2-(2,5-dimethoxyphenyl)-N-(3-fluoro-5-methylbenzyl)ethan-1-amine]: the EC50 in test [1] was > 1 µM; in test [2] it was > 25 µM; in test [3] it was > 30000 nM. The same molecule registered an IC50 in test [4] of 105 nM. This molecule showed a Max % inhibition in test [4] of 99%. The ED50 is 3.2 mg/kg in test [5] (setting [6]) and 13.7 mg/kg in test [5] (po, mice, read-out: HTR ED50).
